Ki data for eleven compounds are collected here from patent publication US9365613B2, “Acylated 4-amidino- and -4-guanidinobenzylamines for inhibition of plasma kallikrein” (The Medicines Company (Leipzig) GmbH, priority 2003, dated 2016).

T1 sequence (P03951 388-625 limits assumed): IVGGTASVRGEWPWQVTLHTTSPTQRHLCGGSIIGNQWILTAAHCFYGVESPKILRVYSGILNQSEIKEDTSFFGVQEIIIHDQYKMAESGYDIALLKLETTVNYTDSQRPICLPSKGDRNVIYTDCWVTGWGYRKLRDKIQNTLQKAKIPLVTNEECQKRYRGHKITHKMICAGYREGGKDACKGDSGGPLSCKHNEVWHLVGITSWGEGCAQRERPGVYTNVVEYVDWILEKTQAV
T1 sequence (P03951 19-387 partner limits assumed): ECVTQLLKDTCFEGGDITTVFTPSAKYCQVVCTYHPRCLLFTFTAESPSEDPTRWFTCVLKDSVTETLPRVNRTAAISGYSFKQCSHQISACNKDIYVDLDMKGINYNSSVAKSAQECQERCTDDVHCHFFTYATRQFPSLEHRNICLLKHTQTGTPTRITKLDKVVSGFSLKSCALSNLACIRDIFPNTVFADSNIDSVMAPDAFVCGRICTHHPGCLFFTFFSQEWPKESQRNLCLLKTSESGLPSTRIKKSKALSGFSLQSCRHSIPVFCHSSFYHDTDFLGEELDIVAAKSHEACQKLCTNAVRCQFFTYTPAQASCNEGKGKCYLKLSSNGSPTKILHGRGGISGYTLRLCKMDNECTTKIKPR
plasma kallikrein (PK), sequence (P03952 391-638 limits assumed, species assumed): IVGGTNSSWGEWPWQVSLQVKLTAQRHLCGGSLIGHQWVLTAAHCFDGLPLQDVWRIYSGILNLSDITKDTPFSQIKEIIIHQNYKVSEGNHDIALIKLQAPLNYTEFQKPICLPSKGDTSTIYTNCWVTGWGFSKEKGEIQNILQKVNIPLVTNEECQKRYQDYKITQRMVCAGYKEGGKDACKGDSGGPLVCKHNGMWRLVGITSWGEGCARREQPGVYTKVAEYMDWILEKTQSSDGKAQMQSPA
plasma kallikrein (PK), sequence (P03952 20-390 partner limits assumed, species assumed): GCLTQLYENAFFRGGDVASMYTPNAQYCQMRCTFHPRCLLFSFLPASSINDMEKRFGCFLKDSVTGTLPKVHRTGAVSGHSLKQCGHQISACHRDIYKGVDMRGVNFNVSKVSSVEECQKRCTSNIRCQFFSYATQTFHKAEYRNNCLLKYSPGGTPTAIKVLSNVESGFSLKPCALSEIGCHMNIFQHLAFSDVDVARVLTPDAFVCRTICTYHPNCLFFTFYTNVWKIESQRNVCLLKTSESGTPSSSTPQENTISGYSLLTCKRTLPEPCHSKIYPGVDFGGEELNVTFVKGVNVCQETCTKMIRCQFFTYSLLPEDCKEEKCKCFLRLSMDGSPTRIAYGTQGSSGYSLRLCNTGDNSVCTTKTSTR
T2 sequence (P00748 373-615 limits assumed, other chains not shown): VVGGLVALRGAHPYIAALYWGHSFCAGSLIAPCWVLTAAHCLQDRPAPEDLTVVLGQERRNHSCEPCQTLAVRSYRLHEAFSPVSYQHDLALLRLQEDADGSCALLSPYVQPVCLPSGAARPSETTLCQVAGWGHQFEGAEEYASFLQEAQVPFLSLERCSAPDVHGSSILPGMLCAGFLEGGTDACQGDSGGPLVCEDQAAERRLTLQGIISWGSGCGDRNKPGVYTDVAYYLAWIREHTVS

The first experiment addresses T1, human factor XIa (Homo sapiens, UniProt P03951).
T1 construct: purchased Haemochrom Diagnostica GmbH, Essen, Germany
Description: Inhibitory constants for factor XIa (substrate H-D-Lys(Z)-Pro-Arg-pNA, Chromozym PCa). Type of experiment: biochemical. The settings on record: read-out: Ki F XIa. Here is the method: (§1) The inhibitory effect for the individual enzymes was determined in analogy with a method which has already been described (Stürzebecher et al., J. Med. Chem. 40, 3091-3099, 1997).
(§2) After 3 min, the reaction was terminated by adding 25 μl of acetic acid (50%) and the absorption at […] was determined using a Microplate Reader (Labsystems iEMS Reader MF). The Ki values were determined, in accordance with Dixon (Biochem. J. 55, 170-171, 1953), by means of linear regression and using a computer program. The Ki values are the mean of at least three determinations.
(§3) The inhibition of factor XIa and factor XIIa was determined in an analogous manner. When determining the inhibitory constants for human factor XIa (Haemochrom Diagnostica GmbH, Essen, Germany), H-D-Lys(Z)-Pro-Arg-pNA (Chromozym PCa, Roche Diagnostics GmbH, Mannheim, Germany) was used as the substrate.
For the compound `N=C(N)c1ccc(CNC(=O)[C@H](CCCCN)NC(=O)[C@@H](CC2CCCCC2)NS(=O)(=O)Cc2ccccc2)cc1` [Inhibitor 53], the Ki came to 150 nM.
On the same count and under the same terms, under `N=C(N)c1ccc(CNC(=O)[C@H](CCCCNC(=O)OCc2ccccc2)NC(=O)[C@@H](CC2CCCCC2)NS(=O)(=O)Cc2ccccc2)cc1` [Inhibitor 54] stands 340 nM; under `N=C(N)c1ccc(CNC(=O)[C@@H]2CCCN2C(=O)[C@@H](CC2CCCCC2)NS(=O)(=O)Cc2cccc(CN)c2)cc1` [Inhibitor 55], 170 nM.
With `N=C(N)c1ccc(CNC(=O)[C@@H]2CCCN2C(=O)[C@@H](CC2CCCCC2)NS(=O)(=O)Cc2cccc(CNC(=O)CCCC(=O)O)c2)cc1` [Inhibitor 56], the Ki was 52 nM.
In the case of `N=C(N)c1ccc(CNC(=O)[C@H](CCC(=O)O)NC(=O)[C@@H](CC2CCCCC2)NS(=O)(=O)Cc2ccccc2)cc1` [Inhibitor 57], the inhibition constant (Ki) worked out at 20 nM.
In the case of `N=C(N)c1ccc(CNC(=O)[C@H](CCCCNC(=O)COCC(=O)NCCOCCOCCOCCOCCOCCOCCOCCN)NC(=O)[C@@H](CC2CCCCC2)NS(=O)(=O)Cc2ccccc2)cc1` [Inhibitor 58], the Ki turned out to be 230 nM.
In the case of `N=C(N)c1ccc(CNC(=O)[C@H](CCC(=O)NCCCOCCOCCOCCCN)NC(=O)[C@@H](CC2CCCCC2)NS(=O)(=O)Cc2ccccc2)cc1` [Inhibitor 59], the Ki came to 40 nM.
On the same count and under the same terms, under `N=C(N)c1ccc(CNC(=O)[C@H](CCC(=O)OCc2ccccc2)NC(=O)[C@@H](CCc2ccncc2)NS(=O)(=O)Cc2ccccc2)cc1` [Inhibitor 60] stands 31 nM; under `N=C(N)c1ccc(CNC(=O)[C@@H]2CCCN2C(=O)[C@@H](CO)NS(=O)(=O)Cc2ccc(C(=O)O)cc2)cc1` [Inhibitor 61], 14 nM.
Turning to `N=C(N)c1ccc(CNC(=O)CNC(=O)[C@@H](CC2CCCCC2)NS(=O)(=O)Cc2ccccc2)cc1` [Inhibitor 63], the Ki came to 25000 nM.
In the case of `CC(C)(C)OC[C@@H](NS(=O)(=O)Cc1ccc(C(=O)O)cc1)C(=O)N[C@@H](CO)C(=O)NCc1ccc(C(=N)N)cc1` [Inhibitor 65], the Ki was 30 nM.

In another experiment the target is thrombin (UniProt P00735). Kind of experiment: Inhibitory constants for thrombin. The settings on record: read-out: Ki Thrombin. Type of experiment: biochemical.
Take `N=C(N)c1ccc(CNC(=O)[C@H](CCCCN)NC(=O)[C@@H](CC2CCCCC2)NS(=O)(=O)Cc2ccccc2)cc1` [Inhibitor 53]: the Ki stood at 10 nM.
As for `N=C(N)c1ccc(CNC(=O)[C@H](CCCCNC(=O)OCc2ccccc2)NC(=O)[C@@H](CC2CCCCC2)NS(=O)(=O)Cc2ccccc2)cc1` [Inhibitor 54], the Ki came to 15 nM.
Turning to `N=C(N)c1ccc(CNC(=O)[C@@H]2CCCN2C(=O)[C@@H](CC2CCCCC2)NS(=O)(=O)Cc2cccc(CN)c2)cc1` [Inhibitor 55], the Ki amounted to 3.2 nM.
Consider `N=C(N)c1ccc(CNC(=O)[C@@H]2CCCN2C(=O)[C@@H](CC2CCCCC2)NS(=O)(=O)Cc2cccc(CNC(=O)CCCC(=O)O)c2)cc1` [Inhibitor 56], for which the Ki was less than 1 nM.
For `N=C(N)c1ccc(CNC(=O)[C@H](CCC(=O)O)NC(=O)[C@@H](CC2CCCCC2)NS(=O)(=O)Cc2ccccc2)cc1` [Inhibitor 57], the Ki was determined as 81 nM.
For `N=C(N)c1ccc(CNC(=O)[C@H](CCCCNC(=O)COCC(=O)NCCOCCOCCOCCOCCOCCOCCOCCN)NC(=O)[C@@H](CC2CCCCC2)NS(=O)(=O)Cc2ccccc2)cc1` [Inhibitor 58], the Ki was 8 nM.
Consider `N=C(N)c1ccc(CNC(=O)[C@H](CCC(=O)NCCCOCCOCCOCCCN)NC(=O)[C@@H](CC2CCCCC2)NS(=O)(=O)Cc2ccccc2)cc1` [Inhibitor 59], for which the Ki worked out at 15 nM.
Take `N=C(N)c1ccc(CNC(=O)[C@H](CCC(=O)OCc2ccccc2)NC(=O)[C@@H](CCc2ccncc2)NS(=O)(=O)Cc2ccccc2)cc1` [Inhibitor 60]: the Ki amounted to 170 nM.
For `N=C(N)c1ccc(CNC(=O)[C@@H]2CCCN2C(=O)[C@@H](CO)NS(=O)(=O)Cc2ccc(C(=O)O)cc2)cc1` [Inhibitor 61], the Ki turned out to be 240 nM.
The same measure, in the same setting: the same measure for `N=C(N)c1ccc(CNC(=O)CNC(=O)[C@@H](CC2CCCCC2)NS(=O)(=O)Cc2ccccc2)cc1` [Inhibitor 63]: 9 nM; for `CC(C)(C)OC[C@@H](NS(=O)(=O)Cc1ccc(C(=O)O)cc1)C(=O)N[C@@H](CO)C(=O)NCc1ccc(C(=N)N)cc1` [Inhibitor 65]: 2000 nM.

Another experiment concerns the target T2, human factor XIIa (Homo sapiens, UniProt P00748).
T2 construct: purchased Haemochrom Diagnostica GmbH, Essen, Germany
Description: Inhibitory constants for factor XIIa (substrate H-D-HHT-Gly-Arg-pNA, Chromozym XII). The experiment is classed as biochemical. Particulars: read-out: Ki F XIIa. As to the method:
as §1, §2, §3
H-D-HHT-Gly-Arg-pNA (Chromozym XII, Roche Diagnostics GmbH, Mannheim, Germany) was used as the substrate for measuring the inhibitory constants of human factor XIIa (Haemochrom Diagnostica GmbH, Essen, Germany).
For the compound `N=C(N)c1ccc(CNC(=O)[C@H](CCCCN)NC(=O)[C@@H](CC2CCCCC2)NS(=O)(=O)Cc2ccccc2)cc1` [Inhibitor 53], the Ki stood at 830 nM.
As to `N=C(N)c1ccc(CNC(=O)[C@H](CCCCNC(=O)OCc2ccccc2)NC(=O)[C@@H](CC2CCCCC2)NS(=O)(=O)Cc2ccccc2)cc1` [Inhibitor 54], the Ki turned out to be 4000 nM.
For the compound `N=C(N)c1ccc(CNC(=O)[C@@H]2CCCN2C(=O)[C@@H](CC2CCCCC2)NS(=O)(=O)Cc2cccc(CN)c2)cc1` [Inhibitor 55], the Ki came out at 470 nM.
Take `N=C(N)c1ccc(CNC(=O)[C@@H]2CCCN2C(=O)[C@@H](CC2CCCCC2)NS(=O)(=O)Cc2cccc(CNC(=O)CCCC(=O)O)c2)cc1` [Inhibitor 56]: the Ki is 5600 nM.
Consider `N=C(N)c1ccc(CNC(=O)[C@H](CCC(=O)O)NC(=O)[C@@H](CC2CCCCC2)NS(=O)(=O)Cc2ccccc2)cc1` [Inhibitor 57], for which the Ki was determined as 4000 nM.
On the same count and under the same terms, the same measure for `N=C(N)c1ccc(CNC(=O)[C@H](CCCCNC(=O)COCC(=O)NCCOCCOCCOCCOCCOCCOCCOCCN)NC(=O)[C@@H](CC2CCCCC2)NS(=O)(=O)Cc2ccccc2)cc1` [Inhibitor 58]: 2000 nM.
Same read-out and setting: under `N=C(N)c1ccc(CNC(=O)[C@H](CCC(=O)NCCCOCCOCCOCCCN)NC(=O)[C@@H](CC2CCCCC2)NS(=O)(=O)Cc2ccccc2)cc1` [Inhibitor 59] stands 980 nM.
On the same count and under the same terms, under `N=C(N)c1ccc(CNC(=O)[C@H](CCC(=O)OCc2ccccc2)NC(=O)[C@@H](CCc2ccncc2)NS(=O)(=O)Cc2ccccc2)cc1` [Inhibitor 60] stands 94 nM.
For `N=C(N)c1ccc(CNC(=O)[C@@H]2CCCN2C(=O)[C@@H](CO)NS(=O)(=O)Cc2ccc(C(=O)O)cc2)cc1` [Inhibitor 61], the Ki was found to be 29000 nM.
Regarding `N=C(N)c1ccc(CNC(=O)CNC(=O)[C@@H](CC2CCCCC2)NS(=O)(=O)Cc2ccccc2)cc1` [Inhibitor 63], the Ki was 700 nM.
As for `CC(C)(C)OC[C@@H](NS(=O)(=O)Cc1ccc(C(=O)O)cc1)C(=O)N[C@@H](CO)C(=O)NCc1ccc(C(=N)N)cc1` [Inhibitor 65], the Ki amounted to 17000 nM.

In the next experiment the target is plasma kallikrein (PK) (Homo sapiens, UniProt P03952). Description: Determining the inhibitory constants: inhibition of PK (substrate Bzl-Pro-Phe-Arg-pNA). The experiment is classed as biochemical. Particulars: Tris buffer pH 8.0, 25° C.; mean of at least three determinations. Here is the method:
as §1, §2
Consider `N=C(N)c1ccc(CNC(=O)[C@H](CCCCN)NC(=O)[C@@H](CC2CCCCC2)NS(=O)(=O)Cc2ccccc2)cc1` [Inhibitor 53], for which the affinity, expressed as Ki, was 2.3 nM.
Same read-out and setting: under `N=C(N)c1ccc(CNC(=O)[C@H](CCCCNC(=O)OCc2ccccc2)NC(=O)[C@@H](CC2CCCCC2)NS(=O)(=O)Cc2ccccc2)cc1` [Inhibitor 54] stands 20 nM; under `N=C(N)c1ccc(CNC(=O)[C@@H]2CCCN2C(=O)[C@@H](CC2CCCCC2)NS(=O)(=O)Cc2cccc(CN)c2)cc1` [Inhibitor 55], 90 nM; under `N=C(N)c1ccc(CNC(=O)[C@@H]2CCCN2C(=O)[C@@H](CC2CCCCC2)NS(=O)(=O)Cc2cccc(CNC(=O)CCCC(=O)O)c2)cc1` [Inhibitor 56], 44 nM.
In the case of `N=C(N)c1ccc(CNC(=O)[C@H](CCC(=O)O)NC(=O)[C@@H](CC2CCCCC2)NS(=O)(=O)Cc2ccccc2)cc1` [Inhibitor 57], the Ki is 30 nM.
On the same count and under the same terms, the same measure for `N=C(N)c1ccc(CNC(=O)[C@H](CCCCNC(=O)COCC(=O)NCCOCCOCCOCCOCCOCCOCCOCCN)NC(=O)[C@@H](CC2CCCCC2)NS(=O)(=O)Cc2ccccc2)cc1` [Inhibitor 58]: 59 nM; for `N=C(N)c1ccc(CNC(=O)[C@H](CCC(=O)NCCCOCCOCCOCCCN)NC(=O)[C@@H](CC2CCCCC2)NS(=O)(=O)Cc2ccccc2)cc1` [Inhibitor 59]: 15 nM; for `N=C(N)c1ccc(CNC(=O)[C@H](CCC(=O)OCc2ccccc2)NC(=O)[C@@H](CCc2ccncc2)NS(=O)(=O)Cc2ccccc2)cc1` [Inhibitor 60]: 5.5 nM.
Compound `N=C(N)c1ccc(CNC(=O)[C@@H]2CCCN2C(=O)[C@@H](CO)NS(=O)(=O)Cc2ccc(C(=O)O)cc2)cc1` [Inhibitor 61] registered a Ki of 9.1 nM.
Turning to `N=C(N)c1ccc(CNC(=O)CNC(=O)[C@@H](CC2CCCCC2)NS(=O)(=O)Cc2ccccc2)cc1` [Inhibitor 63], affinity was put at a Ki of 11 nM.
The compound `CC(C)(C)OC[C@@H](NS(=O)(=O)Cc1ccc(C(=O)O)cc1)C(=O)N[C@@H](CO)C(=O)NCc1ccc(C(=N)N)cc1` [Inhibitor 65] displayed a Ki of 15 nM.
